# Experimental data as given in PMC10850501 (Nature Communications, 2024).
# “Also recorded” adds a separate entry of the source. Read-outs that look alike come from different tables or passages of the source. Peptide text beside a SMILES is read from it.
# How the values were obtained:
# [1] = Subcutaneous bolus biocompatibility; format: in vivo, rat (female Wistar)
# Experimental: The peptide hydrogel was prepared at 10 mg/mL in sterile saline and aspirated in sterile 1 mL syringes, with careful attention to avoid air bubbles. Female Wistar rats (225–250 g, 8–12 weeks old) were used for dorsal subcutaneous implantation. The rats were anesthetized using 2.5% isoflurane and […], after which the back of the rat’s hair was shaved and sterilized with 3 alternating applications of isopropanol and betadine. 200 µL boluses of the peptide hydrogel were injected with a 25 G needle at n = 4 for a time point of 7 days. After the time point, the animals were sacrificed, and the implant regions were collected and fixed overnight in 10% buffered formalin. The Rutgers Cancer Institute of New Jersey histology core processed the paraffin-embedded samples for histological evaluation after staining with hematoxylin and eosin and Masson’s Trichrome. Samples were also fixed in glutaraldehyde and formaldehyde, processed to eponate blocks, and sectioned with an ultramicrotome for electron microscopy imaging (above)[30],[76],[87].
# (§1) Female Wistar rats (225–250 g, 8–12 weeks old) were observed and acclimatized for 2 weeks prior to running the studies. They were housed in a controlled environment with temperature at […] and 40–70% humidity. They were kept in an alternating 12-hour light/dark cycle, and food, and water was provided as pellets ad libitum. Female Wistar Rats were used for the pharmacokinetics and the drug clearance analysis from the blood. The two hydrogels (ESBP2 and ESBP3) at 10 mg/ml concentration were injected into the rats via the lateral tail vein. For subcutaneous implants, the substance was injected between the shoulder blades and above the lumbar vertebrae, 200 μL each, using a 25-gauge needle. The hydrogel bolus was prepared with 0.9% saline and was injected within 1–2 minutes. The volume injected was approximately 1% of the total body weight of the rat, which was calculated prior to the dosing. The initial blood draw was performed for baseline, and the subsequent blood collection was performed from the lateral vein using 25 g butterfly needles.
# [2] = Daily repeat IV dosing, 10 days (chronic PK/safety); format: in vivo, rat (female Wistar)
# Experimental: as §1
# Female Wistar rats (225–250 g, 8–12 weeks old) were weighed and repeatedly dosed (1% by weight) IV with ESBP2 or ESBP3 daily at 10 mg/mL (~3 mM). Rat blood samples were collected daily prior to injection via tail vein. Post 10 days of treatment, animals were allowed to recover for 10 days and then sacrificed. Plasma was stored and analyzed as above. The body weight was recorded every day prior to the blood collection.
# [3] = Intranasal repeat dose tolerability; format: in vivo, mouse (female C57BL/6); settings: 25µL / nostril x 2 daily for 10 days in mice; histopathology H&E, MT
# Experimental: Female C57BL/6 mice (15–20 g, 8–12 weeks old) were used for intranasal dosing of the peptide. As mentioned previously, 25 µl of hydrogels were injected into each of the nasal cavities twice daily at an interval of 8 hours for 10 days consecutively. The organs were harvested at the final time point, and sectioning was performed for histological evaluation. The plasma was also collected for quantifying peptide clearance in the bloodstream of the animal model.
# [4] = tested on: A549 cells; assay: Cytocompatibility (CCK8); format: cell-based, human; settings: human alveolar epithelial A549 cells; 0.01-1 mM
# Experimental: (§2) Cytocompatibility of the peptides was evaluated at 1, 0.1, and 0.01 mM with A549 cells (ATCC CCL-185) cultured in complete media consisting of 90% F-12K and 10% FBS. The A549 cells were utilized after their first passage and seeded at 10,000 cells/well in a 96-well plate for 24 hours. The conditions were prepared in serum-free A549 media and introduced into the wells for 6 hours, after which the condition media were aspirated, the wells were washed once with PBS, and 10 µL of CCK8 was added to 100 µL of PBS[32]. The plate was incubated for 1 hour and read on a Tecan M200 Infinite plate reader at an absorbance of 450 nm with a reference wavelength of 650 nm. The results were analyzed and normalized to the serum-free media control[28],[32],[76].
# [5] = Cytocompatibility (CCK8); format: cell-based, human; settings: human, A549 cells, read-out: cytocompatibility, normalized to serum free media; for viability at 6 h, 10 µM: 0.01 mM peptide; for viability at 6 h, 100 µM: 0.1 mM peptide; for viability at 6 h, 1000 µM: 1 mM peptide
# Experimental: as §2
# [6] = tested on: SARS-CoV-2 live virus (B.1 lineage), Vero E6 cells; format: cell-based
# [7] = molecular target: SARS-CoV-2 Spike-RBD (Severe acute respiratory syndrome coronavirus 2, UniProt P0DTC2); format: binding
# [8] = Acute IV pharmacokinetics; format: in vivo, rat (female Wistar); settings: ESBP3 200μL (10 mg/mL) IV bolus, Wistar rats (n=8)
# Experimental: as §1
# Rat blood samples were collected at 0, 5, 15, 30 minutes, and 1, 2, 4, 8, and 24 hours post-injection timepoints for Acute PK and were aliquoted out into heparinized tubes to prevent coagulation and stored on top of ice packs. Blood collected in K2EDTA anticoagulant tubes was processed to plasma frozen via centrifugation at 13000 RCF for 10 minutes at 4 °C and stored at −80 °C till analysis using HPLC. The body weight was recorded every day prior to the blood collection.
structure (smiles),measurement,setting,value
CC[C@H](C)[C@H](NC(=O)[C@H](Cc1ccc(O)cc1)NC(=O)[C@@H](NC(=O)[C@H](CCCCN)NC(=O)[C@H](Cc1ccc(O)cc1)NC(=O)[C@H](CCC(N)=O)NC(=O)CNC(=O)[C@H](CCC(=O)O)NC(=O)[C@H](CC(C)C)NC(=O)[C@H](CO)NC(=O)[C@H](CC(C)C)NC(=O)[C@H](CO)NC(=O)[C@H](CC(C)C)NC(=O)[C@H](CO)NC(=O)[C@H](CC(C)C)NC(=O)[C@H](CO)NC(=O)[C@H](CC(C)C)NC(=O)[C@H](CO)NC(=O)[C@H](CC(C)C)NC(=O)[C@H](CO)NC(=O)[C@H](CCC(=O)O)NC(C)=O)[C@@H](C)O)C(=O)N[C@@H](CC(=O)O)C(=O)N[C@@H](CCCCN)C(=O)N[C@@H](CC(N)=O)C(=O)N[C@@H](CC(N)=O)C(=O)N[C@@H](Cc1c[nH]cn1)C(=O)N[C@@H](Cc1ccc(O)cc1)C(=O)N[C@@H](C)C(=O)N[C@@H](CCC(=O)O)C(=O)N[C@@H](CC(=O)O)C(=O)N[C@@H](CCC(=O)O)C(=O)N[C@@H](CCCNC(=N)N)C(=O)N[C@@H](Cc1ccc(O)cc1)C(=O)N[C@@H](CCCCN)C(N)=O [ESBP3] (Ac-ESLSLSLSLSLSLEGQYKTYIDKNNHYAEDERYK-NH2),peptide in plasma after subcutaneous bolus,"[1]; 200 µL, 10 mg/mL, once, daily blood draws for 10 days",no detectable ESBP3
same,"subcutaneous bolus tolerability, in words","[1]; 200 µL, 10 mg/mL, once, rats, daily blood draws for 10 days",no significant body weight changes or adverse organ morphology; also recorded: no weight loss or adverse event
same,"histology of Sub-Q implanted boluses (H&E, Masson's Trichrome)",[1]; 7 days,infiltration of boluses with neutrophils/ macrophages
same,"repeat IV dosing safety, in words","[2]; daily IV for 10 days, ~1 w% (10 mg/mL), 225-250 g adult rats",no adverse effect
same,"significant changes in body weight (ESBP3 also animal behavior, adverse events, gross organ morphology) compared to carrier","[2]; daily repeated IV dosing for 10 days, rats",no
same,"intranasal repeat dosing safety, in words",[3],no significant body weight changes or adverse organ morphology; also recorded: nasal turbinate showing no adverse effects; also recorded: no adverse toxicity
same,"cytocompatibility, in words",[4],excellent cytocompatibility
same,"viability at 6 h, 10 µM","[5]; replicate 1, CCK8, 6 h",91.9%
same,"viability at 6 h, 10 µM","[5]; replicate 2, CCK8, 6 h",85.4%
same,"viability at 6 h, 100 µM","[5]; replicate 1, CCK8, 6 h",87.2%
same,"viability at 6 h, 100 µM","[5]; replicate 2, CCK8, 6 h",97.6%
same,"viability at 6 h, 100 µM","[5]; replicate 3, CCK8, 6 h",85.4%
same,"viability at 6 h, 1000 µM","[5]; replicate 1, CCK8, 6 h exposure, absorbance 450 nm",106%
same,"viability at 6 h, 1000 µM","[5]; replicate 2, CCK8, 6 h",125%
same,"viability at 6 h, 1000 µM","[5]; replicate 3, CCK8, 6 h",119%
same,"Comparative, Average",[6],66.6154
same,"inhibition of live virus, in words",[6],dose-dependent inhibition of live virus
same,"live virus plaque inhibition, in words",[6],no major differences
same,"ITC binding to Spike RBD, in words",[7],ESBP3-Spike-binding events
same,"ITC self-assembly, in words",[7],supported spontaneous self-assembly
same,eliminated by,[8],≤ 8 h
same,Cmax,"[8]; female, rat, plasma, 2 mg, at 5 min, read-out: observed maximum concentration",~550 µg/mL
same,AUC,"[8]; female, rat, plasma, 2 mg, read-out: AUC",395 µg·h/mL
